{
  "source": "patent US20100292233A1",
  "about": "“DIHYDRO-1H-PYRROLO[1,2-A]INDOL-1-YL CARBOXYLIC ACID DERIVATIVES WHICH ACT AS S1P1 AGONISTS” (ARENA PHARMACEUTICALS, INC., priority 2008, published 2010)",
  "key": {"[1]": {"tested_on": "C57BL/6 mice", "assay": "MOG-induced EAE in mice", "type": "in vivo, mouse", "settings": "oral, once a day from day 3 until day 21; 1, 3 and 10 mg/kg; FIG. 3", "protocol": "(§1) Animals: Female C57BL/6 mice (8 to 10 weeks of age at start of study) (Jackson Laboratory, Bar Harbor, Me.) were housed four per cage and maintained in a humidity—(40-60%) and temperature—(68-72° F.) controlled facility on a 12 hr:12 hr light/dark cycle (lights on at 6:30 am) with free access to food (Harlan Teklad, Orange, Calif., Rodent Diet 8604) and water. Mice were allowed one week of habituation to the animal facility before testing.\nInduction of EAE: Mice were immunized subcutaneously, 50 μL per hind flank, with a total of 100 μg MOG35-55 peptide emulsified 1:1 with Complete Freund's adjuvant containing 4 mg/mL heat-killed Mycobacterium tuberculosis. Mice also received 200 ng pertussis toxin intraperitoneally on the day of immunization and 48 hours later.\nClinical scoring: Severity of disease symptoms was scored as follows (in increasing order of severity): 0=normal; 1=limp tail OR hind limb weakness; 2=limp tail AND limb weakness/weakness of 2 or more limbs; 3=severe limb weakness or single limb paralysis; 4=paralysis of 2 or more limbs; 5=death.\nDrug treatment: Mice were dosed orally, with vehicle or test compound, once a day from day 3 until day 21. Dosing volume is 5 mL/kg. […] Mice were monitored daily from day 7 onward for disease symptoms. After the last dose on day 21, disease progression was monitored daily for 2 more weeks."}, "[2]": {"tested_on": "NOD/Ltj mice", "assay": "Cyclophosphamide induced type 1 diabetes in mice", "type": "in vivo, mouse", "settings": "oral, once a day from day 0 until day 25; 3 and 10 mg/kg; FIG. 6", "protocol": "Animals: Baseline blood glucose measurements were taken from 9-10 week old female NOD/Ltj mice (Jackson Laboratory, Bar Harbor, Me.) to ensure that they are normoglycemic (blood glucose is 80-120 mg/dL) prior to initiation of the experiment. Blood glucose was measured from tail bleeds using a One Touch Ultra® kit and test strips (LifeScan, Milpitas, Calif.).\nCyclophosphamide induction of Type 1 diabetes: On day 0 and day 14, normoglycemic NOD mice were injected intraperitoneally with 4 mg cyclophosphamide monohydrate (200 mg/kg) dissolved in 0.9% saline. If mice were diabetic (blood glucose is >250 mg/dL) they were not given a booster dose of cyclophosphamide on day 14.\nDrug Treatment: Mice were dosed orally, with vehicle or test compound, once a day from day 0 until day 25. Compounds were suspended in 0.5% methyl cellulose vehicle using a sonicator to ensure uniform suspension. Mice were weighed twice weekly and were dosed according to weight. Dosing volume is 5 mL/kg. Test compound was dosed at 3 mg/kg and 10 mg/kg. Blood glucose was measured twice weekly. After dosing was completed at day 25, the mice continued to be monitored and blood glucose measurements were taken once a week for 3 weeks."}, "[3]": {"tested_on": "C57BL/6 mice", "assay": "Mouse skin allograft survival", "type": "in vivo", "settings": "oral, once a day; 1, 3 and 10 mg/kg; FIG. 5", "protocol": "as §1, with “BALB/cJ” for “C57BL/6”, “(6” for “(8”, “7” for “10”, “water. Female C57BL/6 mice (8 to 10 weeks of age at start of study) (Jackson Laboratory, Bar Harbor, Me.) were similarly housed and maintained.” for “water.”, “testing. […]” for “testing.”\nClinical scoring: Skin allografts were inspected and digital images recorded daily until rejection, which was defined as the first day on which more than 80% of the graft is necrotic. […] In an optional related study, on posttransplantation day 5 isolated lymphocytes from peripheral lymph nodes and spleen were counted and characterized for activation markers (e.g., T-cell activation markers) by flow cytometry. Also on day 5, grafts were removed from transplanted recipients, cut into small fragments, digested with collagenase and sedimented over Ficoll-Paque (Pharmacia Biotech, Uppsala, Sweden) to isolate graft-infiltrating lymphocytes, which were counted and characterized for activation markers (e.g., T-cell activation markers) by flow cytometry. […]"}, "[4]": {"tested_on": "Lewis rats", "assay": "Collagen-induced arthritis in rats (ankle diameter)", "type": "in vivo", "settings": "rat, p.o., q.d., day 0 through day 16; 1, 3 and 10 mg/kg; FIG. 4", "protocol": "Female Lewis rats were used in this study. Acclimated animals were anesthetized with isoflurane and given the first collagen injection (day 0). On day 6, they were anesthetized again for the second collagen injection. Collagen was prepared by making a 4 mg/mL solution in 0.01 N acetic acid. Equal volumes of collagen and incomplete Freund's adjuvant were emulsified by hand mixing until a bead of this material held its form when placed in water. Each animal received 300 μL of the mixture each time, spread over 3 subcutaneous sites on the back.\nTreatment (p.o., q. d., 5 mL/kg dosing volume) began on day 0 and continued through day 16 with vehicle or compounds given at 24 h intervals. Rats were weighed on days 0, 3, 6 and 9 through 17 and caliper measurements of the ankles taken on days 9 through 17. The 2nd enantiomer of Compound 2 (isolated after resolution of compound 2 by HPLC, with a retention time of 14.9 min per the conditions reported in Example 1.25) was dosed at 1, 3 and 10 mg/kg."}},
  "data": [
    {"smiles": "N#Cc1cc(OC(F)(F)F)cc(-c2nc(-c3ccc4c(c3)cc3n4CCC3CC(=O)O)no2)c1", "note": "(stereo not drawn) [2nd enantiomer of Compound 2, 2-(7-(5-(3-Cyano-5-(trifluoromethoxy)phenyl)-1,2,4-oxadiazol-3-yl)-2,3-dihydro-1H-pyrrolo[1,2-a]indol-1-yl)acetic Acid]", "values": [
      {"measurement": "activity in the mouse EAE assay (severity of disease symptoms vs vehicle)", "setting": "[1]", "result": "exhibited activity in the mouse EAE assay"},
      {"measurement": "activity in the mouse type I diabetes assay (blood glucose vs vehicle)", "setting": "[2]", "result": "exhibited activity in the mouse type I diabetes assay"},
      {"measurement": "activity in the mouse skin allograft assay (time of rejection vs vehicle)", "setting": "[3]", "result": "exhibited activity in the mouse skin allograft assay"},
      {"measurement": "reduction of mean ankle diameter vs vehicle", "setting": "[4]", "result": "exhibited activity for reducing mean ankle diameter"}
    ]}
  ]
}
